Experimental findings from patent US11633370B2, “Use of scavengers of reactive gamma-ketoaldehydes to extend cell lifespan and healthspan” (Vanderbilt University, priority 2016, dated 2023) are described below.

In assay [1] the test system is N2 WT C. elegans. In words: F3-IsoP quantification by GC/MS, N2. It is filed as in vivo. As to conditions: Day 1 of adulthood until Day 15. From the text: One of the major stimuli for activation of sirtuins is oxidative stress. […] Indeed, the mitochondrial antioxidant manganese superoxide dismutase (MnSOD) has been identified as one of the major protein targets that is deacetylated by sirtuin isoforms, with deacetylation enhancing the enzymatic activity of MnSOD [60]. If SA indeed preserves SIR-2.1 enzymatic function in vivo, the present inventors hypothesized that SA treatment would dose-dependently decrease biomarkers of oxidant injury in a SIR-2.1-dependent manner. To quantify oxidant injury, the present inventors measured F3-isoprostanes (F3-IsoPs). […] To further characterize SA's ability to preserve SIR-2.1 function, the present inventors assessed acetylation of MnSOD at Lys 122.
F3-Isoprostanes were quantified from SA-treated worms a gas-chromatography-negative ion chemical ionization-mass spectrometry (GC-NICI-MS) approach. […]
Samples were spiked with 248 pg of deuterated internal standards, [^2H4]-15-F2t-IsoP, quantified and calibrated by the method of Milne et al. and acidified to pH<3 with HCl in preparation for further Separation Phase Extraction (SPE). […]
Eluates were dried under nitrogen and F3—IsoPs and resuspended in MeOH for separation by Thin Layer Chromatography (TLC). […] Deuterated F2-IsoP standard was measured at m/z 573. F3—IsoP was measured at m/z 567. […]

Assay [2] deals with N2 WT C. elegans. The assay can be described thus: Real-time RT-PCR (TaqMan) gene expression, N2. It is filed as in vivo. As to conditions: p<0.05. From the text:
First, to validate the microarray results, the present inventors performed real-time RT-PCR on four genes, siah-1, sma-4, F13D12.6, and ets-7 (FIG. 6B). […] Messenger RNA levels for siah-1 and sma-4 were decreased by nearly 25%, as well as F13D12.6 and ets-7 were increased by nearly 25% by SA administration (p<0.05). Pathway Analysis using Gene Ontology (GO) with WEB-based Gene SeT Analysis Toolkit (WEBGESTALT <http://bioinfo.vanderbilt.edu/webgestalt/>) highlighted the metabolic process, lipid metabolic process, proteolysis pathways among many others as being altered favorably by the administration of SA (see Supplemental Data). From the array data confirmed by RT-PCR, the present inventors identified the ETS class transcription factor ETS-7 as a protein of interest. ETS factors are known to be involved in regulating lipid metabolism and regulate lifespan in both Drosophila melanogaster and C. elegans. To investigate the role of ETS-7 in regulating lifespan downstream from salicylamine, SA was administered to the ets-7 gene knock-out strain, RB981 [F19F10.5(ok888) V]). […] The present inventors originally hypothesized that upregulation of ets-7 depends on SIR-2.1, which could result in enhanced longevity. In order to test this, the present inventors carried out real-time RT-PCR quantification of ets-7 in non-functional SIR-2.1 mutant nematodes treated with increasing doses of SA (FIG. 6E).
Total RNA was isolated via the Trizol method, as described previously. Following isolation, 2 μg total RNA was used for cDNA synthesis using the High Capacity cDNA Reverse Transcription Kit (Life Technologies), per manufacturer's instructions. Quantitative real time PCR (Bio-Rad) was conducted using TaqMan Gene Expression Assay Probes (Life Technologies) for each gene. Amplified products was normalized to housekeeping gene, ama-1 (RNA polymerase II) after determining fold difference using the comparative 2^−ΔΔct method. The following probes were used: ama-1 (Assay ID: Ce2462269_m1), ets-7 (Ce02477624_g1), F13D12.6 (Ce02439540_m1), siah-1 (Assay ID: Ce02462269_m1), and sma-4 (Assay ID: Ce202447346_1).
(Real-time PCR tracks product formation cycle by cycle.)

For assay [3], the system named is VC199 non-functional SIR-2.1 mutants. In words: Real-time RT-PCR of ets-7, VC199. Conditions: highest dose of SA, Day 15 VC199; p<0.01. It is filed as in vivo, C. elegans. From the text:
First, to validate the microarray results, the present inventors performed real-time RT-PCR on four genes, siah-1, sma-4, F13D12.6, and ets-7 (FIG. 6B). […] Messenger RNA levels for siah-1 and sma-4 were decreased by nearly 25%, as well as F13D12.6 and ets-7 were increased by nearly 25% by SA administration (p<0.05). Pathway Analysis using Gene Ontology (GO) with WEB-based Gene SeT Analysis Toolkit (WEBGESTALT <http://bioinfo.vanderbilt.edu/webgestalt/>) highlighted the metabolic process, lipid metabolic process, proteolysis pathways among many others as being altered favorably by the administration of SA (see Supplemental Data). From the array data confirmed by RT-PCR, the present inventors identified the ETS class transcription factor ETS-7 as a protein of interest. ETS factors are known to be involved in regulating lipid metabolism and regulate lifespan in both Drosophila melanogaster and C. elegans. […] In order to test this, the present inventors carried out real-time RT-PCR quantification of ets-7 in non-functional SIR-2.1 mutant nematodes treated with increasing doses of SA (FIG. 6E).
Total RNA was isolated via the Trizol method, as described previously. […] Quantitative real time PCR (Bio-Rad) was conducted using TaqMan Gene Expression Assay Probes (Life Technologies) for each gene. […]

As for `NCc1ccccc1O` [SA, salicylamine], the “decrease in F3-IsoP production” value in assay [1] (100 μM SA, p<0.01) turned out to be 29%. Moreover, the “decrease in F3-IsoP levels” value in assay [1] (500 μM SA, p<0.005) was found to be 44%. In addition, the “increase in ets-7 messenger RNA level” value in assay [2] (500 μM SA, Day 15 WT N2) was determined as 32%. For the same compound, the “increase in ets-7 messenger RNA level” value in assay [2] (Day 15 WT N2, SA administration) worked out at 25%. In addition, in assay [2] (Day 15 WT N2), the “decrease in siah-1 messenger RNA level” value is roughly 25%, the “decrease in sma-4 messenger RNA level” value is roughly 25% and the “increase in F13D12.6 messenger RNA level” value was roughly 25%. Moreover, the “increase in ets-7 mRNA expression” value in assay [3] was determined as 442%.
